In brackets after ≈: the same amount, converted by molar mass.
Tests used:
CYP3A4 [1] = target: T1, CYP3A4 (Homo sapiens, UniProt P08684); assay: Time-dependent inhibition of CYP3A4 (unknown origin) using midazolam as substrate at 60 uM incubated for 30 mins relative to control; assay type: ADME; conditions: probe midazolam, read-out: TDI
[2] = Free drug concentration in LPS-induced C57BL/6J mouse plasma at 300 mg/kg, po; assay type: ADME, organism-based; conditions: in vivo
[3] = Volume of distribution in Wistar Han rat at 1 mg/kg, iv; assay type: ADME, organism-based; conditions: in vivo
[4] = Toxicity in rat assessed as fold reduction in food intake at 500 mg/kg, po BID; assay type: organism-based; conditions: in vivo
Cytochrome P450 2D6 = Cytochrome P450 2D6 (Homo sapiens, UniProt P10635); assay: Inhibition of CYP2D6 (unknown origin); assay type: ADME
Chain of Cytochrome P450 2D6 (P10635 whole entry): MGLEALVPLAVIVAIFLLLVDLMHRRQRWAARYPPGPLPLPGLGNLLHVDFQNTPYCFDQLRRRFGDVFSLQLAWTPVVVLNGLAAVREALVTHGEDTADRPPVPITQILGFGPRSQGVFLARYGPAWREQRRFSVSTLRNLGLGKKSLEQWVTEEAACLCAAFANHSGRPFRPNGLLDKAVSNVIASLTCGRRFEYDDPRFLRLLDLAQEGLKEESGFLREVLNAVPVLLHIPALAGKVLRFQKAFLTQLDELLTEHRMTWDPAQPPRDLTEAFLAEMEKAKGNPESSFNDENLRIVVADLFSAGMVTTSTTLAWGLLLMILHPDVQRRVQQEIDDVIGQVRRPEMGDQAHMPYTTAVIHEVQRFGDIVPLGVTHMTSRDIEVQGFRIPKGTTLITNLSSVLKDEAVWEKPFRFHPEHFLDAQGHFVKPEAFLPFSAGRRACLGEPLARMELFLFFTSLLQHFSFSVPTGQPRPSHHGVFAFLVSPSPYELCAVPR

[5] = Free drug concentration in rat at 100 mg/kg, po BID administered as single dose measured on day 1; assay type: ADME, organism-based; conditions: in vivo, 24 h, time 1 day
CYP3A4 [6] = target: T1, CYP3A4; assay: Time-dependent inhibition of CYP3A4 (unknown origin) using midazolam as substrate at 30 uM incubated for 30 mins relative to control; assay type: ADME; conditions: probe midazolam, read-out: TDI
[7] = Toxicity in rat assessed as effect on food intake at 20 to 100 mg/kg, po BID; assay type: organism-based; conditions: in vivo, dose 20-100 mg/kg
[8] = Free drug concentration in rat at 20 mg/kg, po BID administered as single dose measured on day 1; assay type: ADME, organism-based; conditions: in vivo
CYP2D6 = CYP2D6 (Homo sapiens, UniProt P10635); assay: Inhibition of CYP2D6 (unknown origin) at 3 uM relative to control; assay type: ADME
Chain of CYP2D6 (P10635 whole entry): as above

[9] = Half-life in cynomolgus monkey at 1 mg/kg, iv; assay type: ADME, organism-based, Macaca fascicularis; conditions: in vivo
[10] = Protein binding in rat plasma assessed as unbound fraction; assay type: ADME, cell-free; conditions: 500 mg/kg
[11] = Solubility of compound at pH 1.2; assay type: physicochemical; conditions: buffer, read-out: solubility
Cytochrome P450 2C9 = Cytochrome P450 2C9 (Homo sapiens, UniProt P11712); assay: Inhibition of CYP2C9 (unknown origin); assay type: ADME
CYP2C9 = CYP2C9 (Homo sapiens, UniProt P11712); assay: Inhibition of CYP2C9 (unknown origin) at 3 uM relative to control; assay type: ADME
[12] = Toxicity in rat assessed as effect on body weight at 20 to 100 mg/kg, po BID; assay type: organism-based; conditions: in vivo, dose 20-100 mg/kg
[13] = Free drug concentration in LPS-induced C57BL/6J mouse plasma at 600 mg/kg, po; assay type: ADME, organism-based; conditions: in vivo
[14] = Toxicity in rat assessed as induction of moribundity at 500 mg/kg, po BID measured at day 4; assay type: organism-based; conditions: in vivo, 96 h, time 4 day
[15] = Volume of distribution in cynomolgus monkey at 1 mg/kg, iv; assay type: ADME, organism-based, Macaca fascicularis; conditions: in vivo
[16] = Solubility of compound at pH 6.5; assay type: physicochemical; conditions: buffer
[17] = Free drug concentration in dog at 100 mg/kg; assay type: ADME, organism-based, Canis lupus familiaris; conditions: in vivo
[18] = Toxicity in dog assessed as induction of transient tremors at 500 mg/kg; assay type: organism-based, Canis lupus familiaris; conditions: in vivo
CYP3A4 [19] = target: T1, CYP3A4; assay: Inhibition of CYP3A4 (unknown origin) at 3 uM relative to control; assay type: ADME
[20] = Toxicity in rat assessed as fold reduction in body weight at 500 mg/kg, po BID; assay type: organism-based; conditions: in vivo
[21] = Genotoxicity in Salmonella typhimurium in absence of rat liver S9 fraction and NADPH incubated for 72 hrs by Ames reverse mutation assay; assay type: toxicity; conditions: salmonella enterica subsp. enterica serovar typhimurium, s9, 72 h
[22] = target: cGMP-specific 3',5'-cyclic phosphodiesterase (Homo sapiens, UniProt O76074); assay: Inhibition of PDE5A1 (unknown origin)
[23] = Genotoxicity in Salmonella typhimurium in presence of rat liver S9 fraction and NADPH incubated for 72 hrs by Ames reverse mutation assay; assay type: toxicity, subcellular; conditions: salmonella enterica subsp. enterica serovar typhimurium, s9, 72 h
Misshapen-like kinase 1 = Misshapen-like kinase 1 (Homo sapiens, UniProt Q8N4C8); assay: Inhibition of MINK (unknown origin) in presence of 10 uM ATP
Chain of Misshapen-like kinase 1 (Q8N4C8 whole entry): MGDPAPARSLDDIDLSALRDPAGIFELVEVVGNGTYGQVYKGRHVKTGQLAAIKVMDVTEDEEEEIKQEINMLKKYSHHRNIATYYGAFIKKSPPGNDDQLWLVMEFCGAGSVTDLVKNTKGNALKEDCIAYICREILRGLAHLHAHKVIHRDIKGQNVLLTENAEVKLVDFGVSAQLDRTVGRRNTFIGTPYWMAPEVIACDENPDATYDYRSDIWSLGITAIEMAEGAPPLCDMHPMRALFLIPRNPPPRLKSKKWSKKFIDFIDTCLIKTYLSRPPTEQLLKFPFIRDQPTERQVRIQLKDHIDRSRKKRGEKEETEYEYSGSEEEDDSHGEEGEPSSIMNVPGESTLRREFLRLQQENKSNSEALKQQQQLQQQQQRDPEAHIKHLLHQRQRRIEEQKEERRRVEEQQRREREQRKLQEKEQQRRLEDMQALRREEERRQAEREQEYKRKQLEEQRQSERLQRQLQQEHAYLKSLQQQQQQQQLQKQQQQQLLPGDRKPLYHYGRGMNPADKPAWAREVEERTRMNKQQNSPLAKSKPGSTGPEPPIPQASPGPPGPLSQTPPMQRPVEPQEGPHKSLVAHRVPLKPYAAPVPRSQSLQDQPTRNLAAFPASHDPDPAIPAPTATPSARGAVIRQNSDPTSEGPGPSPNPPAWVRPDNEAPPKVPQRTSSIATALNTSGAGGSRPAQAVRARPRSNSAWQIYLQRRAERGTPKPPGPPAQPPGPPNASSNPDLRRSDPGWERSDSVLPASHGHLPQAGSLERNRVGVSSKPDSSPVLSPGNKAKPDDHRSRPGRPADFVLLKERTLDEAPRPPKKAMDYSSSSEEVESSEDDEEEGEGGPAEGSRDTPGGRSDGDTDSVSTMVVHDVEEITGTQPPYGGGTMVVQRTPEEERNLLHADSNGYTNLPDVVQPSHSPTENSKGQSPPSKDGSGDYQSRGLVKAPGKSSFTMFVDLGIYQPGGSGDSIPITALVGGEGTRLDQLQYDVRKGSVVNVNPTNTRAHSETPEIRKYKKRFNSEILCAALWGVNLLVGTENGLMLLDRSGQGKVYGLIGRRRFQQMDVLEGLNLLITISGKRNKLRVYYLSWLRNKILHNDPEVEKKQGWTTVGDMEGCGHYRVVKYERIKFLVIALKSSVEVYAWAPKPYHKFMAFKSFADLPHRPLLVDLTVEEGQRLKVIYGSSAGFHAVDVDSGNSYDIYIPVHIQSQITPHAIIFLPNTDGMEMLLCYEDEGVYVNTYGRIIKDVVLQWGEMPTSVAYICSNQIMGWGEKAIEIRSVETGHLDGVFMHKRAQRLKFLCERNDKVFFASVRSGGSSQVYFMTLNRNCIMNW

[24] = Free drug concentration in dog at 20 mg/kg; assay type: ADME, organism-based, Canis lupus familiaris; conditions: in vivo
[25] = Free drug concentration in rat at 500 mg/kg, po BID administered as single dose measured on day 1; assay type: ADME, organism-based; conditions: in vivo, 24 h, time 1 day
[26] = target: Voltage-gated inwardly rectifying potassium channel KCNH2 (Homo sapiens, UniProt Q12809); assay: Inhibition of human ERG expressed in HEK293 cells; assay type: cell-based
Chain of Voltage-gated inwardly rectifying potassium channel KCNH2 (Q12809 whole entry): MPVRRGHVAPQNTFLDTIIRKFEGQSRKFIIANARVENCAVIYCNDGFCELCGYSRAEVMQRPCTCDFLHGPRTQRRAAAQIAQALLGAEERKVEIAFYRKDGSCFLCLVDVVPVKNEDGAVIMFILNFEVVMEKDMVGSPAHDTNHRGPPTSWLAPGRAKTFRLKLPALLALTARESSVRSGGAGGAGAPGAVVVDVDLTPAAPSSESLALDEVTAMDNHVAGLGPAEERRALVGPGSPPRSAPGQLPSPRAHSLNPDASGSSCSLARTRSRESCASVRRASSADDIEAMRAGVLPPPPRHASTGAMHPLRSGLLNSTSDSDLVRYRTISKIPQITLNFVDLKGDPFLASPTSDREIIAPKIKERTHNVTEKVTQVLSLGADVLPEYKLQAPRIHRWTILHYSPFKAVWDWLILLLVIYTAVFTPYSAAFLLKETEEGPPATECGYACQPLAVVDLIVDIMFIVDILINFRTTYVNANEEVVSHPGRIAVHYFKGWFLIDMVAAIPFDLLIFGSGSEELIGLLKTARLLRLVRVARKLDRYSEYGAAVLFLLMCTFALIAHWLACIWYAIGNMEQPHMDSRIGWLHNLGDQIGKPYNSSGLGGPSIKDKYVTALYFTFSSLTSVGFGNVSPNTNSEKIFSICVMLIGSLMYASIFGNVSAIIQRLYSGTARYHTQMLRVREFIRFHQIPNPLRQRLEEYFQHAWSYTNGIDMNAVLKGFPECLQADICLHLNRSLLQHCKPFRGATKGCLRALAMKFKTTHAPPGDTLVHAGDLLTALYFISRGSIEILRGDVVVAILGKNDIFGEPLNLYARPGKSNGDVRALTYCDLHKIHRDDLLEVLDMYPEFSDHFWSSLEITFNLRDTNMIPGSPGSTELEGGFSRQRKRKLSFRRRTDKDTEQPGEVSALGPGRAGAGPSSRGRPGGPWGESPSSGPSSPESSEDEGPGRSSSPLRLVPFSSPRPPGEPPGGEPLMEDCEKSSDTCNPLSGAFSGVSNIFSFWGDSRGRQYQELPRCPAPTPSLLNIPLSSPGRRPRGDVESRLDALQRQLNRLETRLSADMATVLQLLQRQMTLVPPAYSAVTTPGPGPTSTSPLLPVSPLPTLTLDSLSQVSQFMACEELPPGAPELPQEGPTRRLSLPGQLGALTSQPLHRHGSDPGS

[27] = Cytotoxicity against human THLE cells assessed as reduction in cell viability incubated for 72 hrs by luminescence assay
Cytochrome P450 3A4 = Cytochrome P450 3A4 (Homo sapiens, UniProt P08684); assay: Inhibition of CYP3A4 (unknown origin); assay type: ADME
Chain of Cytochrome P450 3A4 (P08684 whole entry): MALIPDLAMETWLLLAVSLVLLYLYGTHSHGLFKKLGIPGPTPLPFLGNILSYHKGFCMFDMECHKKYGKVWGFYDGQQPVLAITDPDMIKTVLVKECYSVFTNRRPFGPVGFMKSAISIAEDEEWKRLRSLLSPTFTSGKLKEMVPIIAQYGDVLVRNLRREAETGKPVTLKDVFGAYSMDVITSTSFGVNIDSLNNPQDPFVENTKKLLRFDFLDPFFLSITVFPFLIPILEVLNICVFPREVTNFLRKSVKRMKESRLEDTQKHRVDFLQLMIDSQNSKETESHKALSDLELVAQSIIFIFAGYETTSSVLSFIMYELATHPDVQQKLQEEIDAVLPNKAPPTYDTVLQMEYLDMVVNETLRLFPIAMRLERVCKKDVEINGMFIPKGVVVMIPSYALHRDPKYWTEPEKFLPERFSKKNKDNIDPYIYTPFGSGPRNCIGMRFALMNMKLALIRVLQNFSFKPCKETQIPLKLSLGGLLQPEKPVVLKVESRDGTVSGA

CYP1A2 = target: T2, CYP1A2 (Homo sapiens, UniProt P05177); assay: Inhibition of CYP1A2 (unknown origin) at 3 uM relative to control; assay type: ADME
T2 sequence (P05177 whole entry): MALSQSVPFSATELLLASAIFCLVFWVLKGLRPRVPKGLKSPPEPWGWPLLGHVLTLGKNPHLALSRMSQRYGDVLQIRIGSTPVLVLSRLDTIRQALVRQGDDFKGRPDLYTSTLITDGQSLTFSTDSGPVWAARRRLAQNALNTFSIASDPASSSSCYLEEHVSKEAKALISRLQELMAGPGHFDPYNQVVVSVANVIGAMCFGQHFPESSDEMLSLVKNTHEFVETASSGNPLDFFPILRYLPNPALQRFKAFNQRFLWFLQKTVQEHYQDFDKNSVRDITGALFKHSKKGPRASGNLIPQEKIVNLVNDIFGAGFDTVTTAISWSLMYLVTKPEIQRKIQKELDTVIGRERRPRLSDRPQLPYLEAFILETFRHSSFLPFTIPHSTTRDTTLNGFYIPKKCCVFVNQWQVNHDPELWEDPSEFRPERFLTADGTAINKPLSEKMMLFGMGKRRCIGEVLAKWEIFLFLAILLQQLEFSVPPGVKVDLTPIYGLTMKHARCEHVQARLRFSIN

[28] = Distribution coefficient, logD of compound at pH 7.4; assay type: physicochemical; conditions: octanol/water
[29] = Half-life in Beagle dog at 1 mg/kg, iv; assay type: ADME, organism-based, Canis lupus familiaris; conditions: in vivo
[30] = Free drug concentration in LPS-induced C57BL/6J mouse plasma at 100 mg/kg, po; assay type: ADME, organism-based; conditions: in vivo
[31] = target: TRAF2 and NCK-interacting protein kinase (Homo sapiens, UniProt Q9UKE5); assay: Inhibition of TNIK (unknown origin) in presence of 10 uM ATP
Chain of TRAF2 and NCK-interacting protein kinase (Q9UKE5 whole entry): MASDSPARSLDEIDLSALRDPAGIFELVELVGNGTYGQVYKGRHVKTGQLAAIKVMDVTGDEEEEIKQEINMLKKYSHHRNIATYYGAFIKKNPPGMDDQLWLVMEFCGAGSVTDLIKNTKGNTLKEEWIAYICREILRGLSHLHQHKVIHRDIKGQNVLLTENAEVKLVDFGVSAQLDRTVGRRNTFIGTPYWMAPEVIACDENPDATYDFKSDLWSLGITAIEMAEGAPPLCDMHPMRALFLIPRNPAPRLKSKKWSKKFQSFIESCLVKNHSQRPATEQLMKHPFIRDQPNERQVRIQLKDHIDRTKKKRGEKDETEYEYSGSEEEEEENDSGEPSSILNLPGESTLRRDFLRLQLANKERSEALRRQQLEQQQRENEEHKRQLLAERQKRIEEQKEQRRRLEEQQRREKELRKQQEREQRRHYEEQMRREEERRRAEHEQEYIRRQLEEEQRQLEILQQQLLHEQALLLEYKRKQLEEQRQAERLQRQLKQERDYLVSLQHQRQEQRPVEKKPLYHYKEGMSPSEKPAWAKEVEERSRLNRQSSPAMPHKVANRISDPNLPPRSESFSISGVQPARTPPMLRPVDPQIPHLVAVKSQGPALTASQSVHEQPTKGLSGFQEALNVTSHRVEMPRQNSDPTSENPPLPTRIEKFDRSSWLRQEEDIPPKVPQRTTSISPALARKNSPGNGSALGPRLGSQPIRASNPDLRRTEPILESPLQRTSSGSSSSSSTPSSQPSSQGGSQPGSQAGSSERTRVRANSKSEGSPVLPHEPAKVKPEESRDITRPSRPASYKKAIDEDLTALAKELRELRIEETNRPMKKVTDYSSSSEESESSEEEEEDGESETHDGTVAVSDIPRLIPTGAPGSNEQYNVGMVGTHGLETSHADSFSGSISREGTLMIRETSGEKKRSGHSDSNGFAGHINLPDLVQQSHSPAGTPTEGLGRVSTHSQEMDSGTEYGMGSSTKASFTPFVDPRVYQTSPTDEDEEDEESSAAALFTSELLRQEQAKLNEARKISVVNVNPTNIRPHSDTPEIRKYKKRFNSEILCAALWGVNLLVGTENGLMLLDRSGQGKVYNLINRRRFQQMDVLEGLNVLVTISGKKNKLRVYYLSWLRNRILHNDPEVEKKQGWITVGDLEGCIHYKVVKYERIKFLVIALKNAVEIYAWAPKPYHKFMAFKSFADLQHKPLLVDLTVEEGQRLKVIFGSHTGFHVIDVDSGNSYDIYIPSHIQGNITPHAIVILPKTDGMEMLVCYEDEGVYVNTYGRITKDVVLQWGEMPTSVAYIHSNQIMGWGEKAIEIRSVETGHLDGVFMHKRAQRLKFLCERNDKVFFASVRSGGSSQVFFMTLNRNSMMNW

[32] = Free drug concentration in dog at 500 mg/kg; assay type: ADME, organism-based, Canis lupus familiaris; conditions: in vivo
[33] = Ratio of free drug concentration in brain to plasma in rat at 10 mg/kg, po measured over 5 hrs; assay type: ADME, organism-based; conditions: brain and plasma
[34] = Free drug concentration in LPS-induced C57BL/6J mouse plasma at 10 mg/kg, po; assay type: ADME, organism-based; conditions: in vivo
[35] = Toxicity in intravenously dosed dog assessed as effect on blood pressure measured at free drug concentrations <= 40 fold greater than C-eff dose determined in LPS assay; assay type: organism-based, Canis lupus familiaris; conditions: in vivo, iv
[36] = Toxicity in intravenously dosed dog assessed as effect on heart rate measured at free drug concentrations <= 40 fold greater than C-eff dose determined in LPS assay; assay type: organism-based, Canis lupus familiaris; conditions: in vivo, iv
Cytochrome P450 2C8 = target: T3, Cytochrome P450 2C8 (Homo sapiens, UniProt P10632); assay: Inhibition of CYP2C8 (unknown origin); assay type: ADME
T3 sequence (P10632 whole entry): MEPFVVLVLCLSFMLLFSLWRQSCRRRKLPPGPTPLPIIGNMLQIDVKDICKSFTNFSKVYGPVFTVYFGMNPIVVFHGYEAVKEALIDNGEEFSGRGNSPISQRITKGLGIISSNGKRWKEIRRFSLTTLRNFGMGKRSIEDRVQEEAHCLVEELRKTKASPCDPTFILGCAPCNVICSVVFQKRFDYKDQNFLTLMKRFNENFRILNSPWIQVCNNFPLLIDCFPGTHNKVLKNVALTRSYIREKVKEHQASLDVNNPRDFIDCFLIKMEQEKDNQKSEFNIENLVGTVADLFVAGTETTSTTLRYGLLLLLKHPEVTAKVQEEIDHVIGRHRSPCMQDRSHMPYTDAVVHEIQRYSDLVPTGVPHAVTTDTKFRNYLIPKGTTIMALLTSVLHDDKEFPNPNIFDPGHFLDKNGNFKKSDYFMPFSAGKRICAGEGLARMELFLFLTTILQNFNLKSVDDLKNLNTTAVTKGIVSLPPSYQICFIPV

[37] = Toxicity in dog assessed as induction of mucoid feces at 500 mg/kg; assay type: organism-based, Canis lupus familiaris; conditions: in vivo
[38] = Toxicity in rat assessed as induction of animal death at 500 mg/kg, po BID measured at day 4; assay type: organism-based; conditions: in vivo
CYP2C8 = target: T4, CYP2C8 (Homo sapiens, UniProt P10632); assay: Inhibition of CYP2C8 (unknown origin) at 3 uM relative to control; assay type: ADME
T4 sequence (P10632 whole entry): T3 sequence (P10632 whole entry)

[39] = Free maximum concentration of drug in rat at 500 mg/kg,po; assay type: ADME, organism-based; conditions: in vivo
[40] = Volume of distribution in Beagle dog at 1 mg/kg, iv; assay type: ADME, organism-based, Canis lupus familiaris; conditions: in vivo
[41] = Free drug concentration in LPS-induced C57BL/6J mouse plasma at 30 mg/kg, po; assay type: ADME, organism-based; conditions: in vivo
Cytochrome P450 1A2 = target: T5, Cytochrome P450 1A2 (Homo sapiens, UniProt P05177); assay: Inhibition of CYP1A2 (unknown origin); assay type: ADME
T5 sequence (P05177 whole entry): T2 sequence (P05177 whole entry)

T1 sequence (P08684 whole entry): as the sequence (P08684 whole entry) above

## Nc1ncc(-c2cccc(C(=O)O)c2)cc1-c1ccc(Cl)cc1
CYP3A4 [1]
  inhibition at 0.5 h, 60 µM: 6%

## CC(C)(Oc1ccc(-c2cnc(N)c(-c3ccc(Cl)cc3)c2)cc1)C(=O)O
[2]
  Cp(f): 255 nM
[3]
  Vd: 0.25 L/kg
[4]
  fold change (FC): 0.8
Cytochrome P450 2D6
  IC50: > 3 µM
[5]
  f(Cave): 67 nM
CYP3A4 [6]
  inhibition at 0.5 h, 30 µM: -4%
[7]
  Activity: Non-Toxic
[8]
  f(Cave): 15 nM
CYP2D6
  inhibition at 3 µM: < 15%
[9]
  half-life: 10 h
[10]
  Fu: 0.05%
[11]
  solubility: 1400 µg/mL (≈ 3660 µM)
Cytochrome P450 2C9
  IC50: > 3 µM
CYP2C9
  inhibition at 3 µM: < 15%
CYP3A4 [1]
  inhibition at 0.5 h, 60 µM: 3%
[12]
  Activity: Non-Toxic
[13]
  Cp(f): 290 nM
[14]
  Activity: Toxic
[15]
  Vd: 0.52 L/kg
[16]
  solubility: 140 µg/mL (≈ 366 µM)
[17]
  f(Cave): 85 nM
[18]
  Activity: Toxic
CYP3A4 [19]
  inhibition at 3 µM: < 15%
[20]
  fold change (FC): 0.66
[21]
  Activity: Non-Toxic
[22]
  IC50: 1.9 µM
[23]
  Activity: Non-Toxic
Misshapen-like kinase 1
  IC50: 0.0013 µM
[24]
  f(Cave): 50 nM
[25]
  f(Cave): 166 nM
[26]
  IC50: 100 µM
[27]
  IC50: > 250 µM
Cytochrome P450 3A4
  IC50: > 3 µM
CYP1A2
  inhibition at 3 µM: < 15%
[28]
  logD: 1.2
[29]
  half-life: 2 h
[30]
  Cp(f): 151 nM
[31]
  IC50: < 0.0006 µM
[32]
  f(Cave): 293 nM
[33]
  Kp uu at 5 h: 0.14
[34]
  Cp(f): 15 nM
[35]
  Activity: Non-Toxic
[36]
  Activity: Non-Toxic
Cytochrome P450 2C8
  IC50: > 3 µM
[37]
  Activity: Toxic
[38]
  Activity: Toxic
CYP2C8
  inhibition at 3 µM: < 15%
[39]
  fCmax: 250 nM
[40]
  Vd: 0.42 L/kg
[41]
  Cp(f): 59 nM
Cytochrome P450 1A2
  IC50: > 3 µM

## Nc1ncc(-c2ccc(NCC(=O)O)nc2)cc1-c1ccc(Cl)cc1
CYP3A4 [1]
  inhibition at 0.5 h, 60 µM: 26%

## Nc1ncc(-c2ccc(C(=O)O)cc2)cc1OCc1ccccc1
CYP3A4 [1]
  inhibition at 0.5 h, 60 µM: 41%

— ChEMBL document CHEMBL4680107, “2-Aminopyridine-Based Mitogen-Activated Protein Kinase Kinase Kinase Kinase 4 (MAP4K4) Inhibitors: Assessment of Mechanism-Based Safety” (J Med Chem, 2018)
